Test results from ChEMBL document CHEMBL3885861, “Open TG-GATES”.

Species on record: Rattus norvegicus
Test: Open TG-GATES - Regimen: Daily Repeat
Format: toxicity, organism-based, Sprague-Dawley
Parameters: regimen Daily Repeat, gender Male, age 6 weeks
Settings: in vivo, po, route gavage; for APTT / Bas / Eos / Fbg / Hb / Ht / Lym / MCH / MCHC / MCV / Mono / Neu / PT / Plat / RBC / Ret / WBC: tissue Blood
[1] = 300 mg/kg, 72 h, dose level Middle, time 3 day
[2] = 300 mg/kg, 72 h, tissue Kidney, dose level Middle, time 3 day
[3] = 300 mg/kg, 72 h, tissue Plasma, dose level Middle, time 3 day
[4] = 300 mg/kg, […], dose level Middle, time 7 day
[5] = 300 mg/kg, […], dose level Middle, time 14 day
[6] = 300 mg/kg, […], dose level Middle, time 28 day

COc1ccc2[nH]c([S+]([O-])Cc3ncc(C)c(OC)c3C)nc2c1 (configuration not stated) [OMEPRAZOLE]
gamma-GTP (100 mg/kg, […], tissue Plasma, dose level Low, time 28 day): 0.8 IU/L
APTT [1]: 19.8 s
Bas [1]: 0%
Eos [1]: 0.8%
Fbg [1]: 223 mg/dL
Hb [1]: 13 g/dL
Ht [1]: 37.9%
Lym [1]: 81%
MCH [1]: 20.9 pg
MCHC [1]: 34.3%
MCV [1]: 60.9 fL
Mono [1]: 3.6%
Neu [1]: 14%
PT [1]: 12.2 s
Plat [1]: 135 x10_4/uL
RBC [1]: 623 x10_4/ul
Ret [1]: 4.2%
WBC [1]: 94 x10_2/uL
KIDNEY_L [2]: 1 g
KIDNEY_R [2]: 1 g
KIDNEY_TOTAL [2]: 2.1 g
LIVER (300 mg/kg, 72 h, tissue Liver, dose level Middle, time 3 day): 12.8 g
ALP [3]: 925.8 IU/L
AST [3]: 61.4 IU/L
BUN [3]: 14.8 mg/dL
CRE [3]: 0.4 mg/dL
Ca [3]: 10.5 mg/dL
Cl [3]: 100.8 meq/L
DBIL [3]: 0.058 mg/dL
GLC [3]: 220.6 mg/dL
IP [3]: 8.9 mg/dL
K [3]: 3.9 meq/L
LDH [3]: 184.6 IU/L
Na [3]: 139.8 meq/L
PL [3]: 175.8 mg/dL
RALB [3]: 3.4 g/dL
TBIL [3]: 0.1 mg/dL
TC [3]: 101.2 mg/dL
TG [3]: 85 mg/dL
TP [3]: 5.6 g/dL
gamma-GTP [3]: 1 IU/L
TERMINAL_BW [4]: 269.3 g
TERMINAL_BW [5]: 314.9 g
TERMINAL_BW [6]: 384.1 g
APTT [4]: 21.7 s
Bas [4]: 0%
Eos [4]: 1%
Fbg [4]: 216.8 mg/dL
Hb [4]: 13.4 g/dL
Ht [4]: 39.5%
Lym [4]: 78.8%
MCH [4]: 20.6 pg
MCHC [4]: 33.9%
MCV [4]: 60.8 fL
Mono [4]: 3%
Neu [4]: 17.4%
PT [4]: 12 s
Plat [4]: 156.8 x10_4/uL
RBC [4]: 649.8 x10_4/ul
Ret [4]: 4.9%
WBC [4]: 98.4 x10_2/uL
APTT [5]: 20.3 s
Bas [5]: 0%
Eos [5]: 0.8%
Fbg [5]: 211.4 mg/dL
Hb [5]: 13.6 g/dL
Ht [5]: 39.2%
Lym [5]: 83.8%
MCH [5]: 20 pg
MCHC [5]: 34.6%
MCV [5]: 57.6 fL
Mono [5]: 2.8%
Neu [5]: 11.4%
PT [5]: 12.2 s
Plat [5]: 128.3 x10_4/uL
RBC [5]: 681.4 x10_4/ul
Ret [5]: 4.2%
WBC [5]: 96 x10_2/uL
APTT [6]: 21.8 s
Bas [6]: 0%
Eos [6]: 0.8%
Fbg [6]: 203 mg/dL
